The source of these data is ChEMBL document CHEMBL1152090, “Engineering of cyclic peptides with novel inhibiting properties to differentiate two serine proteases, chymotrypsin and subtilisin Carlsberg” (Bioorg Med Chem Lett, 1994).

Data set [1] deals with CC[C@H](C)[C@@H]1NC(=O)[C@@H](CCCN=C(N)N)NC(=O)[C@H](Cc2ccc(O)cc2)NC(=O)[C@@H](CCC(=O)O)NC(=O)[C@H](CCSC)NC(=O)[C@@H]([C@@H](C)O)NC(=O)[C@H](N)CCC(=O)NCCCC[C@H](C(N)=O)NC(=O)[C@@H](C(C)C)NC(=O)[C@H](CCCN=C(N)N)NC(=O)[C@@H](CCC(=O)O)NC1=O. The conditions noted are these: 276 nM.
For data set [2] the test system is unchanged. The conditions noted are these: 120 nM.
The test system is the same in data set [3]. Particulars: 120 nM. This is another data set of the same source.
The test system is the same in data set [4]. The conditions noted are these: 276 nM. The source holds these as a separate data set.
Data set [5] is described as follows: Compound was tested for the inhibition of subtilisin carlsberg at 138 nM.
Data set [6] deals with T1, Chymotrypsinogen A (Bos taurus, UniProt P00766). As to the kind of experiment: Compound was tested for the inhibition of chymotrypsin at 69 nM.
A short description of data set [7]: Compound was tested for the inhibition of subtilisin carlsberg at 23 nM.
The target of data set [8] is T1, Chymotrypsinogen A. As to the kind of experiment: Compound was tested for the inhibition of chymotrypsin at 138 nM.
In data set [9] the target is Chymotrypsinogen A (Bos taurus) (UniProt P00766). The conditions noted are these: 276 nM.
Data set [10] has the same target. Particulars: 120 nM.
For data set [11], the target named is T1, Chymotrypsinogen A. The data set is described as follows: Compound was tested for the inhibition of chymotrypsin at 120 nM.
Data set [12] deals with T1, Chymotrypsinogen A. As to the kind of experiment: Compound was tested for the inhibition of chymotrypsin at 276 nM.
The nature of data set [13]: Compound was tested for the inhibition of subtilisin carlsberg at 300 nM.
Data set [14] in a line: Compound was tested for the inhibition of subtilisin carlsberg at 690 nM.

In general, Km refers to the substrate concentration at which the rate is half of its maximum. With “Chymotrypsinogen A (Bos taurus) (from UniProt P00766)”, the Km worked out at 298 µM in data set [1] and 310 µM in data set [3]. The Vmax in data set [2] turned out to be 3.89e-07 M⁻¹ s⁻¹; in data set [4] it was 3.23e-07 M⁻¹ s⁻¹.
The term Ki denotes the equilibrium dissociation constant of an inhibitor or competing ligand from its target. Read a low Ki as tighter binding. For `CC[C@H](C)[C@@H]1NC(=O)[C@@H](NC(C)=O)CC(=O)/N=C(/N)NCCC[C@@H](C(N)=O)NC(=O)[C@H](Cc2ccc(O)cc2)NC(=O)[C@H](CCC(=O)O)NC(=O)[C@H](CCSC)NC(=O)[C@H]([C@@H](C)O)NC(=O)[C@H](C(C)C)NC1=O`, the inhibition constant (Ki) in data set [5] was found to be 116 nM; at Chymotrypsinogen A [6] it was 203 nM; in data set [7], 128 nM; on Chymotrypsinogen A [8], 191 nM.
Regarding `CC[C@H](C)[C@@H]1NC(=O)[C@@H](CCCN=C(N)N)NC(=O)[C@H](Cc2ccc(O)cc2)NC(=O)[C@@H](CCC(=O)O)NC(=O)[C@H](CCSC)NC(=O)[C@@H]([C@@H](C)O)NC(=O)[C@H](N)CCC(=O)NCCCC[C@H](C(N)=O)NC(=O)[C@@H](C(C)C)NC(=O)[C@H](CCCN=C(N)N)NC(=O)[C@@H](CCC(=O)O)NC1=O`, the k cat was determined as 45.8 s⁻¹ in data set [9] and 55.1 s⁻¹ in [10].
For the compound `CC[C@H](C)[C@@H]1NC(=O)[C@H](CCCNC(=N)N)NC(=O)[C@H](Cc2ccc(O)cc2)NC(=O)[C@H](CCC(=O)O)NC(=O)[C@H](CCSC)NC(=O)[C@H]([C@@H](C)O)NC(=O)[C@@H](N)CCC(=O)NCCCC[C@@H](C(N)=O)NC(=O)[C@H](C(C)C)NC(=O)[C@H](CCCNC(=N)N)NC(=O)[C@H](CCC(=O)O)NC1=O`, the Ki worked out at 668 nM at Chymotrypsinogen A [11], 656 nM at Chymotrypsinogen A [12], 775 nM in data set [13] and 786 nM in data set [14].
